ChEMBL document CHEMBL4038272, “Synthesis and biological evaluation of novel podophyllotoxin-NSAIDs conjugates as multifunctional anti-MDR agents against resistant human hepatocellular carcinoma Bel-7402/5-FU cells” (Eur J Med Chem, 2017)
The source made the active and inactive calls. The calls are words filed in the database; no cut-off is given here.

What was measured:
Bel-7402 = experiment: Antiproliferative activity against human Bel7402 cells after 72 hrs by CCK-8 assay; type: functional, cell-based; details: Bel-7402, 72 h
Bel7402/5-FU [1] = experiment: Antiproliferative activity against human Bel7402/5-FU cells after 72 hrs by CCK-8 assay; type: functional, cell-based
L02 = experiment: Antiproliferative activity against human LO2 cells after 72 hrs by CCK-8 assay; type: cell-based; details: L02, 72 h
[2] = Resistant factor, ratio of IC50 for human Bel7402/5-FU cells to IC50 for human Bel7402 cells; type: functional
Bel7402/5-FU [3] = experiment: Cell cycle arrest in human Bel7402/5-FU cells assessed as accumulation at G1 phase at 0.1 uM after 48 hrs by propidium iodide staining based flow cytometry (reference value: 52.21%); type: functional
Bel7402/5-FU [4] = experiment: Cell cycle arrest in human Bel7402/5-FU cells assessed as accumulation at S phase at 0.1 uM after 48 hrs by propidium iodide staining based flow cytometry (reference value: 12.62%); type: functional
Bel7402/5-FU [5] = experiment: Cell cycle arrest in human Bel7402/5-FU cells assessed as accumulation at G2 phase at 0.1 uM after 48 hrs by propidium iodide staining based flow cytometry (reference value: 35.16%); type: functional
Bel7402/5-FU [6] = experiment: Induction of apoptosis in human Bel7402/5-FU cells assessed as reduction in cell number at 0.1 uM after 24 hrs by Hoechst 33342 staining based fluorescent microscopic method; type: functional
Bel7402/5-FU [7] = experiment: Induction of apoptosis in human Bel7402/5-FU cells assessed as morphological changes at 0.1 uM after 24 hrs by Hoechst 33342 staining based fluorescent microscopic method; type: functional, cell-based
Bel7402/5-FU [8] = experiment: Induction of apoptosis in human Bel7402/5-FU cells assessed as condensed nuclei at 0.1 uM after 24 hrs by Hoechst 33342 staining based fluorescent microscopic method; type: functional, cell-based
Bel7402/5-FU [9] = experiment: Induction of apoptosis in human Bel7402/5-FU cells at 0.1 uM after 24 hrs by Hoechst 33342 staining based fluorescent microscopic method; type: functional, cell-based
Bel7402/5-FU [10] = experiment: Induction of apoptosis in human Bel7402/5-FU cells assessed as live cells at 0.1 uM after 48 hrs by Annexin V-APC/7-AAD staining based flow cytometry (reference value: 91.08%); type: functional
Bel7402/5-FU [11] = experiment: Induction of apoptosis in human Bel7402/5-FU cells assessed as early apoptotic cells at 0.1 uM after 48 hrs by Annexin V-APC/7-AAD staining based flow cytometry (reference value: 5.24%); type: functional
Bel7402/5-FU [12] = experiment: Induction of apoptosis in human Bel7402/5-FU cells assessed as late apoptotic cells at 0.1 uM after 48 hrs by Annexin V-APC/7-AAD staining based flow cytometry (reference value: 3%); type: functional
Bel7402/5-FU [13] = experiment: Induction of apoptosis in human Bel7402/5-FU cells assessed as necrotic cells at 0.1 uM after 48 hrs by Annexin V-APC/7-AAD staining based flow cytometry (reference value: 0.58%); type: functional
Bel7402/5-FU [14] = experiment: Induction of microtubule disruption in human Bel7402/5-FU cells at 0.1 uM after 24 to 48 hrs by DAPI staining based immunofluorescence microscopic method; type: functional, cell-based
Bel7402/5-FU [15] = experiment: Reduction in microtubule density in human Bel7402/5-FU cells at 0.1 uM after 24 to 48 hrs by DAPI staining based immunofluorescence microscopic method; type: functional, cell-based
Bel7402/5-FU [16] = experiment: Antimigratory activity in human Bel7402/5-FU cells at 0.1 uM after 24 hrs by wound healing assay; type: functional, cell-based
Bel7402/5-FU [17] = experiment: Effect on CDK1 expression in human Bel7402/5-FU cells assessed as ratio of CDK1 to beta-actin level at 0.1 uM after 48 hrs by Western blot analysis (reference value: 0.33); type: functional
Bel7402/5-FU [18] = experiment: Effect on CDK2 expression in human Bel7402/5-FU cells assessed as ratio of CDK2 to beta-actin level at 0.1 uM after 48 hrs by Western blot analysis (reference value: 0.43); type: functional
Bel7402/5-FU [19] = experiment: Effect on cyclinA expression in human Bel7402/5-FU cells assessed as ratio of cyclinA to beta-actin level at 0.1 uM after 48 hrs by Western blot analysis (reference value: 0.39); type: functional
Bel7402/5-FU [20] = experiment: Effect on cyclinB1 expression in human Bel7402/5-FU cells assessed as ratio of cyclinB1 to beta-actin level at 0.1 uM after 48 hrs by Western blot analysis (reference value: 0.53); type: functional
Bel7402/5-FU [21] = experiment: Induction of apoptosis in human Bel7402/5-FU cells assessed as ratio of cleaved caspase-3 to beta-actin level at 0.1 uM after 48 hrs by Western blot analysis (reference value: 0.19); type: functional
Bel7402/5-FU [22] = experiment: Induction of apoptosis in human Bel7402/5-FU cells assessed as ratio of cleaved caspase-8 to beta-actin level at 0.1 uM after 48 hrs by Western blot analysis (reference value: 0.17); type: functional
Bel7402/5-FU [23] = experiment: Induction of apoptosis in human Bel7402/5-FU cells assessed as ratio of cleaved caspase-9 to beta-actin level at 0.1 uM after 48 hrs by Western blot analysis (reference value: 0.17); type: functional
Bel7402/5-FU [24] = experiment: Induction of apoptosis in human Bel7402/5-FU cells assessed as ratio of cleaved PARP to beta-actin level at 0.1 uM after 48 hrs by Western blot analysis (reference value: 0.2); type: functional
Bel7402/5-FU [25] = experiment: Effect on COX2 expression in human Bel7402/5-FU cells assessed as ratio of COX2 to beta-actin level at 0.1 uM after 48 hrs by Western blot analysis (reference value: 0.36); type: functional
Bel7402/5-FU [26] = experiment: Effect on COX1 expression in human Bel7402/5-FU cells assessed as ratio of COX1 to beta-actin level at 0.1 uM after 48 hrs by Western blot analysis (reference value: 0.48); type: functional
Bel7402/5-FU [27] = experiment: Effect on VEGFR2 expression in human Bel7402/5-FU cells assessed as ratio of VEGFR2 to beta-actin level at 0.1 uM after 48 hrs by Western blot analysis (reference value: 0.25); type: functional
Bel7402/5-FU [28] = experiment: Effect on MMP2 expression in human Bel7402/5-FU cells assessed as ratio of MMP2 to beta-actin level at 0.1 uM after 48 hrs by Western blot analysis (reference value: 0.3); type: functional
Bel7402/5-FU [29] = experiment: Effect on E-cadherin expression in human Bel7402/5-FU cells assessed as ratio of E-cadherin to beta-actin level at 0.1 uM after 48 hrs by Western blot analysis (reference value: 0.2); type: functional
Bel7402/5-FU [30] = experiment: Effect on iNOS expression in human Bel7402/5-FU cells assessed as ratio of iNOS to beta-actin level at 0.1 uM after 48 hrs by Western blot analysis (reference value: 0.13); type: functional
Bel7402/5-FU [31] = experiment: Effect on P-gp expression in human Bel7402/5-FU cells assessed as ratio of P-gp to beta-actin level at 0.1 uM after 48 hrs by Western blot analysis (reference value: 0.59); type: functional
Bel7402/5-FU [32] = experiment: Effect on MRP1 expression in human Bel7402/5-FU cells assessed as ratio of MRP1 to beta-actin level at 0.1 uM after 48 hrs by Western blot analysis (reference value: 0.58); type: functional
[33] = target: Mitogen-activated protein kinase; ERK1/ERK2 (Homo sapiens) (UniProt P27361+P28482); experiment: Effect on ERK1/2 phosphorylation in human Bel7402/5-FU cells assessed as ratio of phosphorylated ERK1/2 to beta-actin level at 0.1 uM after 48 hrs by Western blot analysis (reference value: 0.59); type: cell-based
[34] = target: Signal transducer and activator of transcription 3 (Homo sapiens) (UniProt P40763); experiment: Effect on STAT3 phosphorylation in human Bel7402/5-FU cells assessed as ratio of phosphorylated STAT3 to beta-actin level at 0.1 uM after 48 hrs by Western blot analysis (reference value: 0.3); type: cell-based
[35] = target: RAC-alpha serine/threonine-protein kinase (Homo sapiens) (UniProt P31749); experiment: Effect on AKT phosphorylation in human Bel7402/5-FU cells assessed as ratio of phosphorylated AKT to beta-actin level at 0.1 uM after 48 hrs by Western blot analysis (reference value: 0.39); type: cell-based
RAC-alpha serine/threonine-protein kinase (Homo sapiens), sequence (P31749 whole entry): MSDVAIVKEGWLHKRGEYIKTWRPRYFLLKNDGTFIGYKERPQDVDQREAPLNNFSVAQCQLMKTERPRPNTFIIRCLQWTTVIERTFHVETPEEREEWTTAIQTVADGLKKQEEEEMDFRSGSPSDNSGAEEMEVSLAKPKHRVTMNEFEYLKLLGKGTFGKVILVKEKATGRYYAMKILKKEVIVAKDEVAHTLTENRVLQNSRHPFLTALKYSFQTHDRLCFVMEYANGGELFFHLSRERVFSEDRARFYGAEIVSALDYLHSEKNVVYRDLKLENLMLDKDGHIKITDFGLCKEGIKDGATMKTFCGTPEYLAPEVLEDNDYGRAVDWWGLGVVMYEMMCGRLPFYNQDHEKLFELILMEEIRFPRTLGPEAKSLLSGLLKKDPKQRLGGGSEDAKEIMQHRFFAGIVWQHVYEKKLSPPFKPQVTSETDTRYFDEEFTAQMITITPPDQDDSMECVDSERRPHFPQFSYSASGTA

Signal transducer and activator of transcription 3 (Homo sapiens), sequence (P40763 whole entry): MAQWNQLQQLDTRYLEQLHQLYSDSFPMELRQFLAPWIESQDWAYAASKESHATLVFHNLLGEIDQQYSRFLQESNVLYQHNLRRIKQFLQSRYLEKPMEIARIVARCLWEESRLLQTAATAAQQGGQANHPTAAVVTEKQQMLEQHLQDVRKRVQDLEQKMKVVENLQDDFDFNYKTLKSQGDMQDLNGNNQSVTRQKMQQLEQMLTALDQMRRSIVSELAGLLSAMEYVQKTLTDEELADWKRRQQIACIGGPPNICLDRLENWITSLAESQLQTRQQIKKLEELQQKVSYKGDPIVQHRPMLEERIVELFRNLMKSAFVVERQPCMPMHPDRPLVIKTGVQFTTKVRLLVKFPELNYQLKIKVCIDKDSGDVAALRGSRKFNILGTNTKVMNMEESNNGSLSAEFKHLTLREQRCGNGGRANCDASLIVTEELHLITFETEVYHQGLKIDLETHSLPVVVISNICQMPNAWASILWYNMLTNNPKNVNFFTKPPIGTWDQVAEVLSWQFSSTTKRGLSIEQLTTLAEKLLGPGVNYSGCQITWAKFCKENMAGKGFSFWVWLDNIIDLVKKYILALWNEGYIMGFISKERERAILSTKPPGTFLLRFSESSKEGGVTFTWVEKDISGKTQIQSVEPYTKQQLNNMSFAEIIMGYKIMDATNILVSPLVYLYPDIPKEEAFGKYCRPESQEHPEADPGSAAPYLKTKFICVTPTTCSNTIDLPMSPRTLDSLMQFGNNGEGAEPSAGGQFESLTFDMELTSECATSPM
Mitogen-activated protein kinase; ERK1/ERK2 (Homo sapiens), sequence (P27361 whole entry, looked up): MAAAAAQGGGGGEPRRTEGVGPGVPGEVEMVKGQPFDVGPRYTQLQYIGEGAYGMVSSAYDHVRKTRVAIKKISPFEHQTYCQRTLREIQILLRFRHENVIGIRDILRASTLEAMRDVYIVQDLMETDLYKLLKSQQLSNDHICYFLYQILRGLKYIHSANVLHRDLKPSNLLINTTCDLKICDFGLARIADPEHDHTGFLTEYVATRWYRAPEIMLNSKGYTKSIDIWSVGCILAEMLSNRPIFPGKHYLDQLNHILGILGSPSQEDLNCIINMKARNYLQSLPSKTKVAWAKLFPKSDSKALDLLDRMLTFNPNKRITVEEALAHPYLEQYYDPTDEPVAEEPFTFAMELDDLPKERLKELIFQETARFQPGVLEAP
Mitogen-activated protein kinase; ERK1/ERK2 (Homo sapiens), sequence (P28482 whole entry, looked up): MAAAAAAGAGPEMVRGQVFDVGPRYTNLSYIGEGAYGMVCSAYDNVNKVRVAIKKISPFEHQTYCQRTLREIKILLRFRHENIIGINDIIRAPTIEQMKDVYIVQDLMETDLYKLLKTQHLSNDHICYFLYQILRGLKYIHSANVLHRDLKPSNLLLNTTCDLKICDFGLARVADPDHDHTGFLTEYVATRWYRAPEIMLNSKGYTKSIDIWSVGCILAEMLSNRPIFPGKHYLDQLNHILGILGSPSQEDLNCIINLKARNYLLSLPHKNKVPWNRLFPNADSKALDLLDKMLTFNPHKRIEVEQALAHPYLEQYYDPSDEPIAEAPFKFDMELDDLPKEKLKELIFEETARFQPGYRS

Structure (SMILES): CC(C)Cc1ccc(C(C)C(=O)O)cc1 (stereo not given) [IBUPROFEN]
- IC50 (Bel-7402): > 100 µM
- IC50 (Bel7402/5-FU [1]): > 100 µM
- IC50 (L02): > 100 µM

Structure (SMILES): COc1cc([C@@H]2c3cc4c(cc3[C@H](OC(=O)c3ccccc3OC(C)=O)[C@H]3COC(=O)[C@H]23)OCO4)cc(OC)c1OC
- IC50 (Bel-7402): 0.199 µM
- IC50 (Bel7402/5-FU [1]): 0.065 µM
- IC50 (L02): 0.09 µM
- Ratio IC50 [2]: 0.32
- Activity (Bel7402/5-FU [3]): 17.03%
- Activity (Bel7402/5-FU [4]): 24.69%
- Activity (Bel7402/5-FU [5]): 58.28%
- Activity (Bel7402/5-FU [6]): Active
- Activity (Bel7402/5-FU [7]): Active
- Activity (Bel7402/5-FU [8]): Active
- Activity (Bel7402/5-FU [9]): Active
- Activity (Bel7402/5-FU [10]): 65.12%
- Activity (Bel7402/5-FU [11]): 5.45%
- Activity (Bel7402/5-FU [12]): 24.2%
- Activity (Bel7402/5-FU [13]): 5.23%
- Activity (Bel7402/5-FU [14]): Active
- Activity (Bel7402/5-FU [15]): Active
- Activity (Bel7402/5-FU [16]): Active
- Ratio (Bel7402/5-FU [17]): 0.28
- Ratio (Bel7402/5-FU [18]): 0.39
- Ratio (Bel7402/5-FU [19]): 0.2
- Ratio (Bel7402/5-FU [20]): 0.09
- Ratio (Bel7402/5-FU [21]): 0.53
- Ratio (Bel7402/5-FU [22]): 0.57
- Ratio (Bel7402/5-FU [23]): 0.57
- Ratio (Bel7402/5-FU [24]): 0.47
- Ratio (Bel7402/5-FU [25]): 0.14
- Ratio (Bel7402/5-FU [26]): 0.31
- Ratio (Bel7402/5-FU [27]): 0.1
- Ratio (Bel7402/5-FU [28]): 0.16
- Ratio (Bel7402/5-FU [29]): 0.31
- Ratio (Bel7402/5-FU [30]): 0.16
- Ratio (Bel7402/5-FU [31]): 0.52
- Ratio (Bel7402/5-FU [32]): 0.31
- Ratio [33]: 0.19
- Ratio [34]: 0.17
- Ratio [35]: 0.29

Structure (SMILES): O=c1[nH]cc(F)c(=O)[nH]1 [FLUOROURACIL]
- IC50 (Bel-7402): 5.94 µM
- IC50 (Bel7402/5-FU [1]): > 100 µM
- IC50 (L02): 32.5 µM
- Ratio IC50 [2]: >16.83

Structure (SMILES): COc1ccc2c(c1)c(CC(=O)O)c(C)n2C(=O)c1ccc(Cl)cc1 [INDOMETHACIN]
- IC50 (Bel-7402): > 100 µM
- IC50 (Bel7402/5-FU [1]): > 100 µM
- IC50 (L02): > 100 µM

Structure (SMILES): CC(=O)Oc1ccccc1C(=O)O [ASPIRIN]
- IC50 (Bel-7402): > 100 µM
- IC50 (Bel7402/5-FU [1]): > 100 µM
- IC50 (L02): > 100 µM
